Results from the supplement of paper PMC10307832.

Experiments:
Test in all cases: relative viability (nuclei count vs DMSO), 5 days (fraction); higher = more cells survive
[1] = compound: CC1=C(C(=NN1)C)CC2=C(C3=C(S2)N(C(=O)N(C3=O)C)CC(C)C)C(=O)N4C[C@@H](CO4)O + Cc1cc(Nc2cc(N3CCN(C)CC3)nc(Sc3ccc(NC(=O)C4CC4)cc3)n2)n[nH]1 [Tozasertib] (partner 0.1 µM)
Summary of the method: (§1)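 Lung cancer cell lines, seeded in 1536-well plates, were treated the following day by pin tool with a single drug or with five library-drug doses (not always all listed) in √10 steps on top of a fixed anchor-drug dose. Cells were fixed and nuclei stained in one step after 5 days, and nuclei were counted. Relative viability is the nuclei count for treated wells divided by that for vehicle wells, reported as medians of duplicate plates.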

[2] = compound: Cc1ccccc1C(C(=O)NC1CCCCC1)N(C(=O)Cn1ccnc1C)c1cccc(F)c1 [IDH-C35] + CC(C)C[C@H](NC(=O)[C@H](Cc1ccccc1)NC(=O)c1cnccn1)B(O)O [Bortezomib] (partner 0.002 µM)
Summary of the method: as §1

[3] = compound: Cc1ccccc1C(C(=O)NC1CCCCC1)N(C(=O)Cn1ccnc1C)c1cccc(F)c1 [IDH-C35] + COc1cc2c(Oc3ccc(NC(=O)C4(C(=O)Nc5ccc(F)cc5)CC4)cc3F)ccnc2cc1OCCCN1CCOCC1 [Foretinib] (partner 0.25 µM)
Summary of the method: as §1

[4] = compound: Cc1ccccc1C(C(=O)NC1CCCCC1)N(C(=O)Cn1ccnc1C)c1cccc(F)c1 [IDH-C35] + C[C@]1(O)C[C@@H](c2nc(-c3ccc4ccc(-c5ccccc5)nc4c3)c3c(N)nccn32)C1 [Linsitinib] (partner 1 µM)
Summary of the method: as §1

Cell Line | relative viability ([1]; first compound 0.0025 µM) | relative viability ([1]; first compound 0.007906 µM) | relative viability ([1]; first compound 0.07906 µM) | relative viability ([1]; first compound 0.25 µM) | relative viability ([2]; first compound 0.08 µM) | relative viability ([2]; first compound 0.253 µM) | relative viability ([2]; first compound 0.8 µM) | relative viability ([2]; first compound 2.53 µM) | relative viability ([2]; first compound 8 µM) | relative viability ([3]; first compound 0.08 µM) | relative viability ([3]; first compound 0.253 µM) | relative viability ([3]; first compound 0.8 µM) | relative viability ([3]; first compound 2.53 µM) | relative viability ([3]; first compound 8 µM) | relative viability ([4]; first compound 0.08 µM) | relative viability ([4]; first compound 0.253 µM) | relative viability ([4]; first compound 0.8 µM) | relative viability ([4]; first compound 8 µM) | relative viability ([1]; first compound 0.025 µM) | relative viability ([4]; first compound 2.53 µM)
NCI-H2405 | 0.697 | 0.729 | 0.577 | 0.676 | 1 | 1 | 0.97 | 0.972 | 0.875 | 1.04 | 1.04 | 1.06 | 1.14 | 1.05 | 0.974 | 0.957 | 0.928 | 0.907 | – | –
NCI-H3122 | 0.37 | 0.242 | 0.414 | 0.485 | 1.1 | 1.01 | 0.985 | 1.02 | 1.02 | 0.919 | 0.984 | 0.915 | 0.928 | 0.958 | 0.991 | 0.971 | 0.972 | 1.02 | 0.376 | 1.01
PC-3 [JPC-3] | 0.932 | 0.74 | 0.932 | 1.01 | 0.854 | 0.868 | 0.849 | 0.856 | 0.813 | 1 | 1.01 | 1.05 | 1.11 | 0.982 | 0.939 | 0.985 | 0.96 | 0.936 | 0.867 | 0.969
PC-14 | 0.593 | 0.549 | 0.614 | 0.598 | 0.983 | 0.897 | 0.792 | 0.834 | 0.767 | 1.03 | 0.909 | 0.978 | 0.988 | 0.889 | 0.967 | 0.939 | 0.938 | 0.862 | 0.525 | 0.95
RERF-LC-KJ | 0.461 | 0.529 | 0.485 | 0.492 | 1.09 | 1.08 | 1.1 | 1.2 | 1.19 | 0.941 | 0.853 | 0.968 | 0.867 | 0.888 | 0.873 | 0.861 | 0.871 | 0.904 | 0.469 | 0.906
SK-LU-1 | 0.3 | 0.266 | 0.256 | 0.278 | 1.34 | 1.33 | 1.25 | – | 1.03 | 0.833 | 0.839 | 0.87 | 0.878 | 0.901 | 0.999 | 1.03 | 1.07 | 1.1 | 0.251 | 1.22
SW 1573 | 0.16 | 0.171 | 0.284 | 0.214 | 1.06 | 1.19 | 0.967 | 1.06 | 1.05 | 1.18 | 0.873 | 0.915 | 0.933 | 0.928 | 0.78 | 0.752 | 0.832 | 0.678 | 0.198 | 0.821
UMC-11 | 0.199 | 0.172 | 0.207 | 0.175 | 0.736 | 0.737 | 0.487 | 0.65 | 0.636 | 0.889 | 1.07 | 0.997 | 1.06 | 1.11 | 0.942 | 1.06 | 1.04 | 0.971 | 0.196 | 1.04
